# Laboratory results taken from patent publication US7867512B2, “Cross-linked polymersomes and related encapsulating membranes” (The Trustees of the University of Pennsylvania, priority 1999, dated 2011).
# Tests used:
# [1] = Micropipette aspiration of vesicle membranes (bending and area expansion moduli, rupture); type: physicochemical; conditions: vesicles formed by electroformation
# Protocol: The tool that has been used to measure many of the material properties of bilayer vesicles is “micropipette aspiration” as applied in FIG. 2. In micropipette aspiration, the rheology and material properties of micron-sized objects are measured using glass pipettes. Small, micron diameter pipettes are used to pick up, deform and manipulate micron-sized objects, such as giant lipid vesicles. The aspiration pressure is controlled by manometers, in which the hydrostatic pressure in a reservoir connected to the micropipette is varied in relation to a fixed reference. Pressure may be varied with a resolution of microns of H2O (or 10^−6 atm).
# A deformable object is aspirated using a pressure driving force (or suction pressure), ΔP, and the object is drawn within the pipette to a projection length LP. […] The bending modulus is measured by exerting small tensions on the membrane, to smooth out thermally-driven surface undulations. […]
# Analogous to a lipid bilayer, at low but increasing aspiration pressures, the thermally undulating polymersome membrane was progressively smoothed, increasing the projected area logarithmically with tension, τ, (FIG. 3A). From the slope of this increase (in tension units of mN/m) versus the fractional change, α, in vesicle area the bending modulus, Kb, was calculated (see, e.g., Evans et al., Phys. Rev. Lett. 64:2094 (1990); Helfrich et al., Nuovo Cimento D3:137 (1984)). […]
# [2] = Lipid probe incorporation and diffusivity by laser-photobleaching; type: physicochemical
# Description: In the same way, mixtures can be made of the copolymer amphiphiles with other synthetic or non-synthetic amphiphiles, such as, lipids or proteins. […] FIGS. 6A and 6B show the uniformity of fluorescence around an aspirated contour of membrane with 3 mol % mixed in with polymer before vesicle formation.
compound,measurement,setting,value
"CCCCCCCC/C=C\CCCCCCCC(=O)O[C@H](COC(=O)CCCCCCCCCCCCCCCCC)COP(=O)([O-])OCC[N+](C)(C)C [SOPC, 1-stearoyl-2-oleoyl phosphatidylcholine]","Ka, elastic modulus for area expansion",[1],~180 mN/m
same,lipid probe diffusivity,[2],approximately 3×10^−8 cm^2/s
